Test results taken from paper PMC4893628, “Chalcone-based Selective Inhibitors of a C4 Plant Key Enzyme as Novel Potential Herbicides” (Scientific Reports, 2016).
Where two headings read alike, the source gives them in different places.

Assays:
[1] = test system: Pseudomonas putida KT2440; assay: Bacterial growth in microscale cultivation, P. putida; assay type: cell-based; conditions: relative to control; for activity at 4 µM / activity at 40 µM / activity at 400 µM: Pseudomonas putida
Experimental: (§1) The following bacteria were cultivated in the presence of trans-chalcone derived inhibitors: Corynebacterium glutamicum ATCC13032[43], Escherichia coli K-12 MG1655[44], Pseudomonas putida KT2440[45], and Bacillus subtilis 168[46]. The growth of these bacteria was monitored in flower-well plates shaken at 1200 rpm as backscatter at 620 nm (gain 20) using a BioLector® microscale cultivation system (m2p labs, Baesweiler, Germany). For further experimental details please refer to the Supplementary Information.
(§2) medium or the appropriate minimal medium and shaken at 140 rpm overnight. For inoculation of
(§3) the main culture, cells equivalent to an optical density at 600 nm of 0.5 (C. glutamicum, E. coli,
(§4) and P. putida) or 0.25 (B. subtilis) in 800 µL medium were washed and resuspended in fresh
(§5) media. Inhibitor substances were dissolved in DMSO and added to the media to a final
(§6) Since the least polar trans-chalcone and 2’-hydroxychalcone precipitated in the growth media at
(§7) the highest concentrations, the maximal concentration of these compounds was reduced to 400
(§8) µM and 100 µM, respectively. The final backscatter at 620 nm, the growth rate (h-1), and the
(§9) duration of the lag phase of all cultures were determined in a BioLector microscale cultivation
(§10) system in comparison to negative controls supplemented with the solvent DMSO. A longer lag

[2] = test system: Amaranthus retroflexus; assay: In planta growth experiment, A. retroflexus; assay type: in vivo; conditions: shoots sprayed, 3 mM
From the text: Seeds of Amaranthus retroflexus L. (Herbiseed, Twyford, UK) and Brassica napus L. cv. Mozart (Norddeutsche Pflanzenzucht Hans-Georg Lembke KG, Holtsee, Germany) were sown in vermiculite for germination. When cotyledons were fully expanded, seedlings were transplanted into plastic pots with a volume of 0.230 L filled with a substrate containing 50% bottom ash (0–4 mm), 30% peat and 20% pumice gravel (0–4 mm). Plants were watered every other day with 0.03% Hakaphos® Grün solution (Compo Expert GmbH, Münster, Germany) by sub-irrigation. Plants were grown in a climate chamber at 22 °C/20 °C day/night temperature and a day/night length of 16 h/8 h. Relative humidity was adjusted to 70% and light intensity was 320 μmol m^−2 s^−1 PAR (Photosynthetically Active Radiation) at plant level.
When seedlings reached the two-leaf growth stage, plant shoots were sprayed from the top with treatment solutions using spray bottles with a spraying angle of 35° (10 ml, neoLab Migge Laborbedarf-Vertriebs GmbH, Heidelberg, Germany). Treatment solutions were applied from a height of 8.5 cm above the pots. Each pot was sprayed once with a solution volume of 0.135 ml. Treatment solutions contained 2.4% (v/v) DMSO (dimethylsulfoxide, Duchefa Biochemie, Haarlem, the Netherlands), 0.1% (v/v) Tween® and the respective compound at a concentration of 3 mM. The control treatment contained 2.4% (v/v) DMSO, and 0.1% (v/v) Tween20. Further details are given in the Supplementary Information. […]
Experimental design and assessments of in planta experiments
We tested eleven compounds in a first experiment. In a follow-up experiment we tested selected […]
chalcone. Each treatment was repeated 12 times, except for oilseed rape in the second experiment (n=10). Pots were arranged in the growth chamber according to a fully randomized design. Initial growth of the second leaf of A. retroflexus plants was monitored by aquiring images of each plant from above from day zero to day two after treatment. Images were taken […]
from a fixed distance at 90° view angle using the camera Canon EOS 70D equipped with a Canon EF 14 mm/2.8 L II USM lens. Leaf area of single leaves was measured using the ImageJ software31, by drawing the leaf contours using a drawing tablet (Cintiq 22HD, Wacom Europe GmbH, Krefeld, Germany). Conversion of pixel to cm was achieved by using a target of known size inside the image. Six days after the treatment, half of the plants were harvested. Leaf area was assessed using a leaf area meter (LI3100C Area Meter, LI-Cor, Lincoln, Nebraska, USA) and samples were oven-dried at 65°C for seven days to obtain dry weight . Thirteen days after the treatment, this procedure was repeated with the second half of plants.
Chlorophyll fluorescence measurements […]
6 mm leaf discs were cut out of the second leaf and immediately placed into 96-well-plates filled with 300 µL 0.125 % Hoagland’s solution with 1 mM MES-KOH (MES-monohydrate, Merck, Darmstadt, Germany) buffered to a pH of 6.5. The treatment solution contained 1.6 % (v/v) DMSO, 0.1 % (v/v) Tween® 20 and 2',3',4',3,4-Pentahydroxychalcone at a concentration of 2 mM. The control treatment contained 1.6 % (v/v) DMSO, 0.1 % (v/v) Tween® 20. Each leaf disc was treated with 1.5 µL solution placed on top of the leaf discs. Plates were sealed with Parafilm and placed into a climate cabinet with 12h/12h day/night-length and a temperature of 22°C at a light intensity of 130 µmol m-2 s-1. 96 hours after treatment, chlorophyll fluorescence measurements were performed on leaf discs using an Imaging PAM M-Series fluorescence camera (Heinz Walz GmbH, Effeltrich, Germany). Leaf discs were dark adapted for 30 minutes, minimum and maximum chlorophyll fluorescence were obtained and leaf discs were illuminated for 30 minutes

[3] = test system: Bacillus subtilis 168; assay: Bacterial growth in microscale cultivation, B. subtilis; assay type: cell-based; conditions: relative to control
Experimental: as §1, §2, §3, §4, §5, §6, §7, §8, §9, §10

[4] = KT2440, complex medium, 4 µM, read-out: Final Backscatter
[5] = KT2440, complex medium, 4 µM, read-out: Growth rate
[6] = KT2440, complex medium, 40 µM, read-out: Final Backscatter
[7] = KT2440, complex medium, 40 µM, read-out: Growth rate
[8] = KT2440, complex medium, 400 µM, read-out: Final Backscatter
[9] = KT2440, complex medium, 400 µM, read-out: Growth rate
[10] = KT2440, minimal medium, 4 µM, read-out: Final Backscatter
[11] = KT2440, minimal medium, 4 µM, read-out: Growth rate
[12] = KT2440, minimal medium, 40 µM, read-out: Final Backscatter
[13] = KT2440, minimal medium, 40 µM, read-out: Growth rate
[14] = KT2440, minimal medium, 400 µM, read-out: Final Backscatter
[15] = KT2440, minimal medium, 400 µM, read-out: Growth rate
[16] = Bacillus subtilis, 168, complex medium, 4 µM, read-out: Final Backscatter
[17] = Bacillus subtilis, 168, complex medium, 4 µM, read-out: Growth rate
[18] = Bacillus subtilis, 168, complex medium, 40 µM, read-out: Final Backscatter
[19] = Bacillus subtilis, 168, complex medium, 40 µM, read-out: Growth rate
[20] = Bacillus subtilis, 168, complex medium, 400 µM, read-out: Final Backscatter
[21] = Bacillus subtilis, 168, complex medium, 400 µM, read-out: Growth rate
[22] = Bacillus subtilis, 168, minimal medium, 4 µM, read-out: Final Backscatter
[23] = Bacillus subtilis, 168, minimal medium, 4 µM, read-out: Growth rate
[24] = Bacillus subtilis, 168, minimal medium, 40 µM, read-out: Final Backscatter
[25] = Bacillus subtilis, 168, minimal medium, 40 µM, read-out: Growth rate
[26] = Bacillus subtilis, 168, minimal medium, 400 µM, read-out: Final Backscatter
[27] = Bacillus subtilis, 168, minimal medium, 400 µM, read-out: Growth rate

| SMILES | activity at 4 µM [1, 4] | activity at 4 µM [1, 5] | activity at 40 µM [1, 6] | activity at 40 µM [1, 7] | activity at 400 µM [1, 8] | activity at 400 µM [1, 9] | activity at 4 µM [1, 10] | activity at 4 µM [1, 11] | activity at 40 µM [1, 12] | activity at 40 µM [1, 13] | activity at 400 µM [1, 14] | activity at 400 µM [1, 15] | Lag Phase ([1]; complex medium, 4 µM) | Lag Phase ([1]; complex medium, 40 µM) | Lag Phase ([1]; complex medium, 400 µM) | Lag Phase ([1]; minimal medium, 4 µM) | Lag Phase ([1]; minimal medium, 40 µM) | Lag Phase ([1]; minimal medium, 400 µM) | Influence on plants [2] | activity at 4 µM [3, 16] | other results |
| --- | --- | --- | --- | --- | --- | --- | --- | --- | --- | --- | --- | --- | --- | --- | --- | --- | --- | --- | --- | --- | --- |
| O=C(/C=C/c1ccc(O)cc1)c1ccc(O)cc1O [Compound 6, 2′,4′,4-Trihydroxychalcone] | 97.7% | 104% | 97.2% | 106% | 99.9% | 100% | 99% | 104% | 103% | 106% | 117% | 104% | 99,4% | 101,7% | 107,3% | 103,3% | 105,6% | 107,8% | No | 97.3% | activity at 4 µM [3, 17]: 107%; activity at 40 µM [3, 18]: 99.9%; activity at 40 µM [3, 19]: 107%; activity at 400 µM [3, 20]: 91.1%; activity at 400 µM [3, 21]: 109%; activity at 4 µM [3, 22]: 100%; activity at 4 µM [3, 23]: 103%; activity at 40 µM [3, 24]: 99.7%; activity at 40 µM [3, 25]: 99%; activity at 400 µM [3, 26]: 101%; activity at 400 µM [3, 27]: 88.2%; Lag Phase ([3]; complex medium, 4 µM): 100,0%; Lag Phase ([3]; complex medium, 40 µM): 102,6%; Lag Phase ([3]; complex medium, 400 µM): 128,1%; Lag Phase ([3]; minimal medium, 4 µM): 98,9%; Lag Phase ([3]; minimal medium, 40 µM): 102,2%; Lag Phase ([3]; minimal medium, 400 µM): 116,3% |
| O=C(/C=C/c1ccccc1O)c1ccc(O)cc1O [Compound 7, 2′,4′,2-Trihydroxychalcone] | 99.1% | 100% | 95.3% | 101% | 99.9% | 99.6% | 101% | 98.3% | 100% | 94.3% | 99.8% | 106% | 100,0% | 100,0% | 100,0% | 111,6% | 101,6% | 95,6% | No | 99.9% | activity at 4 µM [3, 17]: 95.9%; activity at 40 µM [3, 18]: 102%; activity at 40 µM [3, 19]: 104%; activity at 400 µM [3, 20]: 98.3%; activity at 400 µM [3, 21]: 92.5%; activity at 4 µM [3, 22]: 98.8%; activity at 4 µM [3, 23]: 107%; activity at 40 µM [3, 24]: 98.5%; activity at 40 µM [3, 25]: 107%; activity at 400 µM [3, 26]: 95.3%; activity at 400 µM [3, 27]: 70.4%; Lag Phase ([3]; complex medium, 4 µM): 100,0%; Lag Phase ([3]; complex medium, 40 µM): 107,1%; Lag Phase ([3]; complex medium, 400 µM): 185,2%; Lag Phase ([3]; minimal medium, 4 µM): 104,9%; Lag Phase ([3]; minimal medium, 40 µM): 106,1%; Lag Phase ([3]; minimal medium, 400 µM): 143,2% |
